Patent US8323673B2, “Concentrated, non-foaming solution of quaternary ammonium compounds and methods of use” (University of Arkansas, priority 1996, dated 2012)

Key:
[1] = system: C. jejuni; assay: Spraying whole chicken carcasses with a commercial sprayer; design: species or system Campylobacter jejuni; settings: for BACTERIA PRESENT, 5,000 ppm CPC: preexisting C. jejuni, MPN, spray 20 seconds at 60 psi
Protocol: (§1) These experiments tested the effect that spraying QACs on whole chicken carcasses using a commercial sprayer would have on the reduction of viable bacteria. The bacterial inoculating solutions were made as follows: E. coli (ATTC #25922) was grown in brain heart infusion broth (BHI) for 20-24 h and then diluted to a 1:1000 concentration by adding 0.5 ml of E. coli culture to 500 ml of physiological saline solution (PSS). S. typhimurium was grown in BHI for 20-24 h and then diluted to a 1:5000 concentration by adding 0.1 ml of S. typhimurium culture to 500 ml of physiological saline solution (PSS). […] Prechill chicken carcasses were obtained from a local poultry processing plant for each trial. The carcasses were placed on a shackle line and 1 ml of the bacterial inoculating solution was sprayed on the breast of the carcass, and 1 ml was sprayed on the back. The bacteria were allowed to attach for 30 min at room temperature. After attachment the carcasses were rinsed on the shackle line with tap water for 20 seconds. The carcasses were divided into groups of ten. […] In the S. typhimurium tests, there was also a group that was not sprayed after inoculation to evaluate the effect of the spray.
(§2) For all of the bacteria, one group of carcasses were treated with the Johnson™ washer for 20 seconds at 60 psi with 35 cups of tap water. After the rinse, the carcasses were allowed to set for 90 seconds, and then rinsed with 20 cups of tap water for 20 seconds at 80 psi. This rinse cycle was repeated either two or three times. The interval of each rinse was also 90 seconds. […] This rinse cycle was repeated either two or three times.
(§3) After treatment the carcasses were placed in plastic bags and 100 ml of 0.1% buffered peptone water (BPW) was added to each bag. The bags were mechanically shaken and the rinse collected for most probable number (MPN) technique. Petrifilm™ was also employed for evaluation of total aerobic plate counts (TPC). Preexisting (not inoculated) C. jejuni was enumerated by the MPN technique and E. coli by Petrifilm™.

[2] = Ames assay for mutagenicity; type: cell-based
Protocol: The present invention has an important application in the food processing industry, as well as for home and institutional food preparation. QACs are readily available and the cost of carrying out the method of the present invention is not expensive as compared to existing antimicrobial processes. […] A range of concentrations of QACs are effective in preventing broad spectrum microbial growth on food products. QACs are tested by the Ames assay for mutagenicity.

[3] = system: Escherichia coli O157:H7
[4] = system: Escherichia coli O157:H7; remark: listed apart in the source
[5] = system: S. typhimurium; assay: Concentration and time study: reduction of viable S. typhimurium on chicken skin; design: species or system Salmonella typhimurium; settings: CPC 4000 and 8000 ppm in 5% glycerin-PBS, contact times as low as 3 min
Protocol: CPC in the glycerin-PBS mixture. […] Salmonella storage was on TSA. Inoculum preparation was performed as follows.
Culture plates with the skin pieces were incubated (30 min., 35° C.), and then the incubating solution was removed by aspiration. The inoculated skins were treated with 5 ml of the test solution. […] A corner of the bag was aseptically cut and the entire contents were transferred to a sterile centrifuge tube, which was then spun for 10 min (12,000 rpm, 20° C.). The pellet was resuspended in 5 ml 0.1% (w/v) peptone/water.

[6] = system: S. typhimurium; assay: Spraying whole chicken carcasses with a commercial sprayer; design: species or system Salmonella typhimurium
Protocol: as §1, §2, §3

[7] = system: Escherichia coli O157:H7; remark: listed apart in the source
[8] = system: L. monocytogenes; assay: Reduction of viable Listeria monocytogenes attached to chicken skin; settings: CPC 2000 ppm or higher
Description: The steps of Example 2 were followed except that L. monocytogenes was used to inoculate the chicken skin and the media in the plastic bag used in the Stomacher 400 contained 0.1% peptone.

[9] = system: E. coli; assay: Spraying whole chicken carcasses with a commercial sprayer; design: species or system Escherichia coli; settings: for BACTERIA PRESENT, 5,000 ppm CPC: Petrifilm, spray 20 seconds at 60 psi
Protocol: as §1, §2, §3

[10] = system: Salmonella; assay: Another spraying experiment on chicken carcasses; settings: 90 second spraying of chicken carcasses with 5,000 ppm CPC
[11] = system: L. monocytogenes; assay: Inhibition of attachment of Listeria monocytogenes to chicken skin
Description: The steps of Example 3 were followed except that L. monocytogenes was used to inoculate the chicken skin and the media in the plastic bag used in the Stomacher 400 contained 0.1% peptone.

[12] = system: Arcobacter butzleri; assay: MBC, macrodilution broth method; type: cell-based; settings: microaerophilic, 37° C., 48 hours
Protocol: (§4) Experiments were conducted by microaerophilic incubation at 37° C. for 48 hours. An aliquot of each dilution was pour plated in agar and incubated in microaerophilic conditions at 37° C. for 48 hours. MBCs were determined as the lowest dilution with no growth.

[13] = system: Campylobacter jejuni; assay: MBC, macrodilution broth method; type: cell-based; settings: microaerophilic, 37° C., 48 hours
Protocol: as §4

Q: With `CCCCCCCCCCCCCCCC[n+]1ccccc1` [CPC, cetylpyridinium chloride] as the compound, how does the “Reduction in Log10 (water control vs 5,000 ppm CPC)” value (from here on “Reduction in Log10”) ([1]; Trial 1) read?
A: 2.613 Log10

Q: What about the “BACTERIA PRESENT, 5,000 ppm CPC” value ([1]; Trial 1) of the same compound?
A: 0

Q: And the “Reduction in Log10” value ([1]; Trial 2)?
A: 2.014 Log10

Q: What about the “BACTERIA PRESENT, 5,000 ppm CPC” value ([1]; Trial 2) of the same compound?
A: 0.629

Q: What about the “mutagenicity by the Ames assay” value [2] of the same compound?
A: nonmutagenic

Q: And the “reduction in the number of bacteria attached to the beef” value [3]?
A: 76%

Q: What about the “reduction in attached bacteria” value [4] of the same compound?
A: 62-64%

Q: And the “decontamination (Salmonella reduction) on chicken skin” value [5]?
A: ~5 log10

Q: What about the “Reduction, No Spray vs. CPC Treatment” value ([6]; trial 1 (Dec. 02, 1996)) of the same compound?
A: 1.047 Log10 CFUs

Q: And the “Reduction, Spray vs. CPC Treatment” value ([6]; trial 1 (Dec. 02, 1996))?
A: 0.744 Log10 CFUs

Q: And the “S. typhimurium, 5,000 ppm CPC” value ([6]; trial 1 (Dec. 02, 1996))?
A: 4.295 Log10 CFUs

Q: What about the “Reduction, No Spray vs. CPC Treatment” value ([6]; trial 2 (Dec. 09, 1996)) of the same compound?
A: 3.327 Log10 CFUs

Q: And the “Reduction, Spray vs. CPC Treatment” value ([6]; trial 2 (Dec. 09, 1996))?
A: 2.955 Log10 CFUs

Q: What about the “S. typhimurium, 5,000 ppm CPC” value ([6]; trial 2 (Dec. 09, 1996)) of the same compound?
A: 1.977 Log10 CFUs

Q: What about the “Reduction, No Spray vs. CPC Treatment” value ([6]; trial 3 (Dec. 16, 1996)) of the same compound?
A: 2.395 Log10 CFUs

Q: And the “Reduction, Spray vs. CPC Treatment” value ([6]; trial 3 (Dec. 16, 1996))?
A: 2.548 Log10 CFUs

Q: And the “S. typhimurium, 5,000 ppm CPC” value ([6]; trial 3 (Dec. 16, 1996))?
A: 2.606 Log10 CFUs

Q: What about the “Reduction, No Spray vs. CPC Treatment” value ([6]; trial 4 (Jan. 27, 1997)) of the same compound?
A: 3.69 Log10 CFUs

Q: What about the “Reduction, Spray vs. CPC Treatment” value ([6]; trial 4 (Jan. 27, 1997)) of the same compound?
A: 3.45 Log10 CFUs

Q: What about the “S. typhimurium, 5,000 ppm CPC” value ([6]; trial 4 (Jan. 27, 1997)) of the same compound?
A: 1.03 Log10 CFUs

Q: And the “Reduction, No Spray vs. CPC Treatment” value ([6]; trial 5 (Feb. 03, 1997))?
A: 2.76 Log10 CFUs

Q: What about the “Reduction, Spray vs. CPC Treatment” value ([6]; trial 5 (Feb. 03, 1997)) of the same compound?
A: 2.79 Log10 CFUs

Q: What about the “S. typhimurium, 5,000 ppm CPC” value ([6]; trial 5 (Feb. 03, 1997)) of the same compound?
A: 1.426 Log10 CFUs

Q: What about the “reduction of Salmonella by CPC in the wash water” value ([6]; wash water of the S. typhimurium runs) of the same compound?
A: 1 log

Q: And the “number of attached bacteria reduced to” value [7]?
A: below 0.1%

Q: And the “reduction in L. monocytogenes” value [8]?
A: > 4 log10

Q: What about the “Reduction in Log10” value ([9]; Trial 1) of the same compound?
A: 1.588 Log10

Q: What about the “BACTERIA PRESENT, 5,000 ppm CPC” value ([9]; Trial 1) of the same compound?
A: 0.386

Q: And the “Reduction in Log10” value ([9]; Trial 2)?
A: 0.920 Log10

Q: And the “BACTERIA PRESENT, 5,000 ppm CPC” value ([9]; Trial 2)?
A: 0.460

Q: What about the “reduction of Salmonella” value [10] of the same compound?
A: 3.3 log10

Q: And the “reduction of attached bacteria” value ([11]; 50 ppm CPC)?
A: 82%

Q: And the “reduction of attached bacteria” value ([11]; 100 ppm CPC)?
A: 92%

Q: And the “reduction of attached bacteria” value ([11]; 500 and 1000 ppm CPC)?
A: 100%

Q: What about the “CPC Vs Arcobacter Butzleri, growth in MBC test” value (shortened to “CPC Vs Arcobacter Butzleri”) ([12]; CPC 0.50 μg/mL) of the same compound?
A: +

Q: What about the “CPC Vs Arcobacter Butzleri” value ([12]; CPC 0.98 μg/mL) of the same compound?
A: +

Q: And the “CPC Vs Arcobacter Butzleri” value ([12]; CPC 1.96 μg/mL)?
A: +

Q: What about the “CPC Vs Arcobacter Butzleri” value ([12]; CPC 3.91 μg/mL) of the same compound?
A: +

Q: And the “CPC Vs Arcobacter Butzleri” value ([12]; CPC 7.81 μg/mL)?
A: +

Q: What about the “CPC Vs Arcobacter Butzleri” value ([12]; CPC 15.63 μg/mL) of the same compound?
A: +

Q: And the “CPC Vs Arcobacter Butzleri” value ([12]; CPC 31.25 μg/mL)?
A: +

Q: What about the “CPC Vs Arcobacter Butzleri” value ([12]; CPC 62.5 μg/mL) of the same compound?
A: −

Q: What about the “CPC Vs Arcobacter Butzleri” value ([12]; CPC 125 μg/mL) of the same compound?
A: −

Q: And the “CPC Vs Arcobacter Butzleri” value ([12]; CPC […])?
A: +

Q: And the “CPC Vs Campylobacter Jejuni, growth in MBC test” value (“CPC Vs Campylobacter Jejuni” for short) ([13]; CPC 0.50 μg/mL)?
A: +

Q: And the “CPC Vs Campylobacter Jejuni” value ([13]; CPC 0.98 μg/mL)?
A: +

Q: What about the “CPC Vs Campylobacter Jejuni” value ([13]; CPC 1.96 μg/mL) of the same compound?
A: +

Q: And the “CPC Vs Campylobacter Jejuni” value ([13]; CPC 3.91 μg/mL)?
A: +

Q: And the “CPC Vs Campylobacter Jejuni” value ([13]; CPC 7.81 μg/mL)?
A: −

Q: And the “CPC Vs Campylobacter Jejuni” value ([13]; CPC 15.63 μg/mL)?
A: −

Q: What about the “CPC Vs Campylobacter Jejuni” value ([13]; CPC 31.25 μg/mL) of the same compound?
A: −

Q: And the “CPC Vs Campylobacter Jejuni” value ([13]; CPC 62.5 μg/mL)?
A: −

Q: What about the “CPC Vs Campylobacter Jejuni” value ([13]; CPC 125 μg/mL) of the same compound?
A: −

Q: What about the “CPC Vs Campylobacter Jejuni” value ([13]; CPC […]) of the same compound?
A: +
